From patent US20240360157A1, “TYK2 INHIBITORS” (BIOGEN MA INC., priority 2021, published 2024)

Key:
Type in all cases: biochemical
[1] = target: human JAK2 catalytic kinase (JH1) domain (Homo sapiens (Human), UniProt O60674); test: ADP-Glo Kinase Assay, recombinant JAK2 catalytic kinase (JH1) domain; conditions: recombinant JH1 domain 0.2 nM, 15 μM ATP, JAK3-974 peptide, mean, read-out: JAK2 biochem IC50 (nM) Mean
Outline: (§1)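 Luminescent ADP read-out after residual ATP depletion, 100 min reaction. Kinase domain concentrations were 4 nM (JAK1), 0.2 nM (JAK2), 0.3 nM (JAK3) and 2 nM (TYK2), each with 50 μM peptide. IC50 values came from 4-parameter logistic fits over 11 points, 3-fold steps, top 10 μM or 1 μM.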

[2] = target: human JAK1 catalytic kinase (JH1) domain (Homo sapiens (Human), UniProt P23458); test: ADP-Glo Kinase Assay, recombinant JAK1 catalytic kinase (JH1) domain; conditions: recombinant JH1 domain 4 nM, 35 μM ATP, JAK3-342 peptide, mean, read-out: JAK1 biochem IC50 (nM) Mean
Chain of human JAK1 catalytic kinase (JH1) domain (P23458 875-1153): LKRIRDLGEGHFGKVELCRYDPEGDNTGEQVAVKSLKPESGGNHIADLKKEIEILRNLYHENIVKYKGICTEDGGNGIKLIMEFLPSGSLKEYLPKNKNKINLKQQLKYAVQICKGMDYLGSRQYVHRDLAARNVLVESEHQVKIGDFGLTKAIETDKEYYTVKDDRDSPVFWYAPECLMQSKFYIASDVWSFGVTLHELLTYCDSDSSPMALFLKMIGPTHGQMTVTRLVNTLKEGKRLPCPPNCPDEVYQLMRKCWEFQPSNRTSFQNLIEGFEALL
Outline: as §1

[3] = target: human JAK3 catalytic kinase (JH1) domain (Homo sapiens (Human), UniProt P52333); test: ADP-Glo Kinase Assay, recombinant JAK3 catalytic kinase (JH1) domain; conditions: recombinant JH1 domain 0.3 nM, 4 μM ATP, JAK3-974 peptide, mean, read-out: JAK3 biochem IC50 (nM) Mean
Chain of human JAK3 catalytic kinase (JH1) domain (P52333 822-1111): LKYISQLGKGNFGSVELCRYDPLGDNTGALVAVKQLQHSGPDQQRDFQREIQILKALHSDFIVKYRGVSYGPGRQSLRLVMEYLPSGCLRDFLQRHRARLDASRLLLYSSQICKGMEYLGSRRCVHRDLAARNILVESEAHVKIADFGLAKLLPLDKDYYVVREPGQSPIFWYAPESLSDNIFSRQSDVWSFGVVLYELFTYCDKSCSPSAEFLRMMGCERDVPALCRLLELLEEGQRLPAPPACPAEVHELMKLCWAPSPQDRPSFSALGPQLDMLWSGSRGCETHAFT
Outline: as §1

[4] = target: human TYK2 catalytic kinase (JH1) domain (Homo sapiens (Human), UniProt P29597); test: ADP-Glo Kinase Assay, recombinant TYK2 catalytic kinase (JH1) domain; conditions: recombinant JH1 domain 2 nM, 10 μM ATP, JAK3-974 peptide, mean, read-out: TYK2 biochem IC50 (nM) Mean
Chain of human TYK2 catalytic kinase (JH1) domain (P29597 897-1176): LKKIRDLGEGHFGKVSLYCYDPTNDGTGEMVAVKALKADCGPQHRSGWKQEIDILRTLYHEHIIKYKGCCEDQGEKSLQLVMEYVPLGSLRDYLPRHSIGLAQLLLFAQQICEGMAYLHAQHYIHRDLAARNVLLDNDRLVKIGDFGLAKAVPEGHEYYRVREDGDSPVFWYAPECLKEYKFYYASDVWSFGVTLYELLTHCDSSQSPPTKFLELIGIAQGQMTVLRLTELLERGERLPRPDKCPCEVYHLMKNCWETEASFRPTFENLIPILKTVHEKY
Outline: as §1

Chain of human JAK2 catalytic kinase (JH1) domain (O60674 849-1124): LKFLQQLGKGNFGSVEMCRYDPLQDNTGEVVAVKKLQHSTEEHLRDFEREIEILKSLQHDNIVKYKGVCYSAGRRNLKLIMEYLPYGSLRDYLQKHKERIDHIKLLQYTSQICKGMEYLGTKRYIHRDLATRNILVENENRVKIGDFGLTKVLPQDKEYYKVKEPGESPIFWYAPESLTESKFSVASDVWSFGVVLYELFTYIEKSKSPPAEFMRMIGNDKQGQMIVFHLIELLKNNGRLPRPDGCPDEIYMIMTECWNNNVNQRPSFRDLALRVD

| Structure (SMILES) | IC50 [1] [nM] | IC50 [2] [nM] | IC50 [3] [nM] | IC50 [4] [nM] |
| --- | --- | --- | --- | --- |
| O=C([C@@H]1C[C@H]1F)N1C2CCC1CN(c1ccnc3[nH]c(-c4ccnnc4)nc13)C2 [Example 207, ((1S,2R)-2-fluorocyclopropyl)(3-(2-(pyridazin-4-yl)-3H-imidazo[4,5-b]pyridin-7-yl)-3,8-diazabicyclo[3.2.1]octan-8-yl)methanone] | 150 | 126 | 2680 | 39.6 |
| O=C([C@@H]1C[C@H]1F)N1C2CCC1CN(c1ccnc3[nH]c(C4CC4)nc13)C2 [Example 208, (3-(2-cyclopropyl-3H-imidazo[4,5-b]pyridin-7-yl)-3,8-diazabicyclo[3.2.1]octan-8-yl)((1S,2R)-2-fluorocyclopropyl)methanone] | 772 | 716 | 6420 | 85.4 |
| O=C([C@@H]1C[C@H]1F)N1C2CCC1CN(c1ccnc3[nH]c(C4CCC4)nc13)C2 [Example 209, (3-(2-cyclobutyl-3H-imidazo[4,5-b]pyridin-7-yl)-3,8-diazabicyclo[3.2.1]octan-8-yl)((1S,2R)-2-fluorocyclopropyl)methanone] | 8500 | 1710 | 8590 | 358 |
| O=C([C@@H]1C[C@H]1F)N1C2CCC1CN(c1ccnc3[nH]c(C4(F)CC4)nc13)C2 [Example 210, ((1S,2R)-2-fluorocyclopropyl)(3-(2-(1-fluorocyclopropyl)-3H-imidazo[4,5-b]pyridin-7-yl)-3,8-diazabicyclo[3.2.1]octan-8-yl)methanone] | 2600 | 798 | 5520 | 398 |
| O=C([C@@H]1C[C@H]1F)N1C2CCC1CN(c1ccnc3[nH]c(C4CCOC4)nc13)C2 (stereo partly drawn) [Example 211, ((1S,2R)-2-fluorocyclopropyl)(3-(2-(tetrahydrofuran-3-yl)-3H-imidazo[4,5-b]pyridin-7-yl)-3,8-diazabicyclo[3.2.1]octan-8-yl)methanone] | 10000 | 5780 | 10000 | 676 |
| O=C([C@@H]1C[C@H]1F)N1C2CCC1CN(c1ccnc3[nH]c(N4CCOCC4)nc13)C2 [Example 212, ((1S,2R)-2-fluorocyclopropyl)(3-(2-morpholino-3H-imidazo[4,5-b]pyridin-7-yl)-3,8-diazabicyclo[3.2.1]octan-8-yl)methanone] | 650 | 322 | 4220 | 30.5 |
| Cn1cc(-c2nc3c(N4CC5CCC(C4)N5C(=O)[C@@H]4C[C@H]4F)c(F)cnc3[nH]2)c(F)n1 [Example 213, (3-(6-fluoro-2-(3-fluoro-1-methyl-1H-pyrazol-4-yl)-3H-imidazo[4,5-b]pyridin-7-yl)-3,8-diazabicyclo[3.2.1]octan-8-yl)((1S,2R)-2-fluorocyclopropyl)methanone] | 25 | 37 | 87 | 2.5 |
| O=C(C1CC1)N1C2CCC1CN(c1ccnc3[nH]c(-c4cnn(C(F)F)c4)nc13)C2 [Example 214, cyclopropyl(3-(2-(1-(difluoromethyl)-1H-pyrazol-4-yl)-3H-imidazo[4,5-b]pyridin-7-yl)-3,8-diazabicyclo[3.2.1]octan-8-yl)methanone] | 62 | 94 | 346 | 7.6 |
| N#CC1CC1c1nc2c(N3CC4CCC(C3)N4C(=O)[C@@H]3C[C@H]3F)ccnc2[nH]1 (stereo partly drawn) [Example 215, 2-(7-(8-((1S,2R)-2-fluorocyclopropane-1-carbonyl)-3,8-diazabicyclo[3.2.1]octan-3-yl)-3H-imidazo[4,5-b]pyridin-2-yl)cyclopropane-1-carbonitrile] | 5350 | 2180 | 10000 | 484 |
| Cn1cc(-c2nc3c(N4CC5CCC(C4)N5C(=O)[C@@H]4C[C@H]4F)ccnc3[nH]2)c(F)n1 [Example 216, (3-(2-(3-fluoro-1-methyl-1H-pyrazol-4-yl)-3H-imidazo[4,5-b]pyridin-7-yl)-3,8-diazabicyclo[3.2.1]octan-8-yl)((1S,2R)-2-fluorocyclopropyl)methanone] | 14 | 41 | 235 | 1.9 |
| CNc1cc(-c2nc3c(N4CC5CCC(C4)N5C(=O)[C@@H]4C[C@H]4F)ccnc3[nH]2)ccn1 [Example 217, ((1S,2R)-2-fluorocyclopropyl)(3-(2-(2-(methylamino)pyridin-4-yl)-3H-imidazo[4,5-b]pyridin-7-yl)-3,8-diazabicyclo[3.2.1]octan-8-yl)methanone] | 8 | 3 | 107 | 0.4 |
| CN1CCOC(c2nc3c(N4CC5CCC(C4)N5C(=O)[C@@H]4C[C@H]4F)ccnc3[nH]2)C1 (stereo partly drawn) [Example 218, ((1S,2R)-2-fluorocyclopropyl)(3-(2-(4-methylmorpholin-2-yl)-3H-imidazo[4,5-b]pyridin-7-yl)-3,8-diazabicyclo[3.2.1]octan-8-yl)methanone] | 10000 | 2940 | 10000 | 783 |
| O=C(C1CC1)N1C2CCC1CN(c1ncnc3[nH]c(-c4cnn(C(F)F)c4)cc13)C2 [Example 219, cyclopropyl(3-(6-(1-(difluoromethyl)-1H-pyrazol-4-yl)-7H-pyrrolo[2,3-d]pyrimidin-4-yl)-3,8-diazabicyclo[3.2.1]octan-8-yl)methanone] | 752 | 232 | 698 | 23.6 |
| Cn1cc(-c2cc3c(N4CC5CCC(C4)N5C(=O)C4CC4)ncnc3[nH]2)cn1 [Example 220, cyclopropyl(3-(6-(1-methyl-1H-pyrazol-4-yl)-7H-pyrrolo[2,3-d]pyrimidin-4-yl)-3,8-diazabicyclo[3.2.1]octan-8-yl)methanone] | 690 | 242 | 501 | 34 |
| O=C([C@@H]1C[C@H]1F)N1C2CCC1CN(c1ncnc3[nH]c(-c4cnn(C(F)F)c4)cc13)C2 [Example 221, (3-(6-(1-(difluoromethyl)-1H-pyrazol-4-yl)-7H-pyrrolo[2,3-d]pyrimidin-4-yl)-3,8-diazabicyclo[3.2.1]octan-8-yl)((1S,2R)-2-fluorocyclopropyl)methanone] | 73 | 82 | 461 | 2.8 |
| O=C([C@@H]1CC1(F)F)N1C2CCC1CN(c1ncnc3[nH]c(-c4cnn(C(F)F)c4)cc13)C2 [Example 222, ((S)-2,2-difluorocyclopropyl)(3-(6-(1-(difluoromethyl)-1H-pyrazol-4-yl)-7H-pyrrolo[2,3-d]pyrimidin-4-yl)-3,8-diazabicyclo[3.2.1]octan-8-yl)methanone] | 128 | 132 | 999 | 5.7 |
| O=C([C@@H]1C[C@H]1F)N1C2CCC1CN(c1ncnc3[nH]c(-c4ccnc(C(F)(F)F)c4)cc13)C2 [Example 223, ((1S,2R)-2-fluorocyclopropyl)(3-(6-(2-(trifluoromethyl)pyridin-4-yl)-7H-pyrrolo[2,3-d]pyrimidin-4-yl)-3,8-diazabicyclo[3.2.1]octan-8-yl)methanone] | 352 | 308 | 1620 | 23.9 |
| Cc1ccc(-c2cc3c(N4CC5CCC(C4)N5C(=O)[C@@H]4C[C@H]4F)ncnc3[nH]2)cn1 [Example 224, ((1S,2R)-2-fluorocyclopropyl)(3-(6-(6-methylpyridin-3-yl)-7H-pyrrolo[2,3-d]pyrimidin-4-yl)-3,8-diazabicyclo[3.2.1]octan-8-yl)methanone] | 462 | 234 | 1100 | 19.2 |
| COc1ccc(-c2cc3c(N4CC5CCC(C4)N5C(=O)[C@@H]4C[C@H]4F)ncnc3[nH]2)cn1 [Example 225, ((1S,2R)-2-fluorocyclopropyl)(3-(6-(6-methoxypyridin-3-yl)-7H-pyrrolo[2,3-d]pyrimidin-4-yl)-3,8-diazabicyclo[3.2.1]octan-8-yl)methanone] | 357 | 245 | 735 | 21.3 |
| CN(C)c1ccc(-c2cc3c(N4CC5CCC(C4)N5C(=O)[C@@H]4C[C@H]4F)ncnc3[nH]2)cn1 [Example 226, (3-(6-(6-(dimethylamino)pyridin-3-yl)-7H-pyrrolo[2,3-d]pyrimidin-4-yl)-3,8-diazabicyclo[3.2.1]octan-8-yl)((1S,2R)-2-fluorocyclopropyl)methanone] | 244 | 116 | 468 | 14.9 |
| N#Cc1ccc(-c2cc3c(N4CC5CCC(C4)N5C(=O)[C@@H]4C[C@H]4F)ncnc3[nH]2)cn1 [Example 227, 5-(4-(8-((1S,2R)-2-fluorocyclopropane-1-carbonyl)-3,8-diazabicyclo[3.2.1]octan-3-yl)-7H-pyrrolo[2,3-d]pyrimidin-6-yl)picolinonitrile] | 418 | 268 | 1590 | 31.6 |
| O=C([C@@H]1C[C@H]1F)N1C2CCC1CN(c1ncnc3[nH]c(-c4ccc(C(F)(F)F)nc4)cc13)C2 [Example 228, ((1S,2R)-2-fluorocyclopropyl)(3-(6-(6-(trifluoromethyl)pyridin-3-yl)-7H-pyrrolo[2,3-d]pyrimidin-4-yl)-3,8-diazabicyclo[3.2.1]octan-8-yl)methanone] | 813 | 315 | 7440 | 41.2 |
